The values that follow come from patent publication US20010053351A1, “Inhibition of GSK-3 beta” (priority 1999, published 2001).

For one assay, the system named is GSK-3. Particulars: cited from earlier work.
A further assay concerns GSK-3β−/− cells. Kind of assay: Cell death / viability (trypan blue) of GSK-3β-/- embryonic fibroblast cell lines. It counts as cell-based, mouse. Particulars: anisomycin 0-5 μg/ml, sorbitol 0-1000 mM, daunorubicin 0-1000 ng/ml. An excerpt:
To probe the mechanism by which GSK-3β impacted TNF cytotoxicity, immortalized mouse embryonic fibroblast (MEF) cell lines from two wild-type ([…]), two GSK-3β heterozygous (+/−1 and +/−2) and two GSK-3β homozygous mutant (−/−1 and −/−2) embryos were derived from embryos.
We next examined the sensitivity of the lines to TNF-induced cell death. […] As a reference, TNF receptor-associated factor 2 (TRAF2) homozygous mutant MEFs were used in the same assay.
Viability is expressed normalized to untreated controls. Independently derived GSK-3β^+/+ EF cell clones are indicated by +/+1 and +/+2; GSK-3β^+/− by +/−1 and +/−2; and GSK-3β^−/− by −/−1, and −/−2. […] Cells were uniformly treated with cycloheximide (CHX, 0.25 μg/ml). […] (C) Sensitivity of GSK-3β^−/− EF cells to various apoptotic stimuli. EF cells were stimulated with anisomycin (0-5 μg/ml), sorbitol (0-1000 mM), daunorubicin (0-1000 ng/ml), and γ-irradiation (0-50 Gy). All experiments were repeated at least three times, and the data (as a percentage) is shown as the mean ± standard error.

Another assay addresses GSK-3α (Homo sapiens, UniProt P49840). The settings on record: significant effects at concentrations of VPA similar to those attained clinically; cited from earlier work.
The target in another assay is GSK-3β (Homo sapiens, UniProt P49841). Particulars: significant effects at concentrations of VPA similar to those attained clinically; cited from earlier work.
Sequence of GSK-3β (P49841 whole entry): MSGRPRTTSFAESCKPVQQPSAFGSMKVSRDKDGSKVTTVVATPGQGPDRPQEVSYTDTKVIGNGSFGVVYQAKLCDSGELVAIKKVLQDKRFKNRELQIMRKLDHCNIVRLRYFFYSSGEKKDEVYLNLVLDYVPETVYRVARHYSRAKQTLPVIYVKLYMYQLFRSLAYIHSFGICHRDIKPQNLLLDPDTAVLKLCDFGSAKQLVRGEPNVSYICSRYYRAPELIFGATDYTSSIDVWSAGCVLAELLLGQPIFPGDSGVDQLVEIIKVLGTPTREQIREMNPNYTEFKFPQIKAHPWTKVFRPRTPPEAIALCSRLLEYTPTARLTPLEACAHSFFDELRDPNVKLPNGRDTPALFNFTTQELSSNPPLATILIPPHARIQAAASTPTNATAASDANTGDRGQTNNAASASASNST

Sequence of GSK-3α (P49840 whole entry, species assumed): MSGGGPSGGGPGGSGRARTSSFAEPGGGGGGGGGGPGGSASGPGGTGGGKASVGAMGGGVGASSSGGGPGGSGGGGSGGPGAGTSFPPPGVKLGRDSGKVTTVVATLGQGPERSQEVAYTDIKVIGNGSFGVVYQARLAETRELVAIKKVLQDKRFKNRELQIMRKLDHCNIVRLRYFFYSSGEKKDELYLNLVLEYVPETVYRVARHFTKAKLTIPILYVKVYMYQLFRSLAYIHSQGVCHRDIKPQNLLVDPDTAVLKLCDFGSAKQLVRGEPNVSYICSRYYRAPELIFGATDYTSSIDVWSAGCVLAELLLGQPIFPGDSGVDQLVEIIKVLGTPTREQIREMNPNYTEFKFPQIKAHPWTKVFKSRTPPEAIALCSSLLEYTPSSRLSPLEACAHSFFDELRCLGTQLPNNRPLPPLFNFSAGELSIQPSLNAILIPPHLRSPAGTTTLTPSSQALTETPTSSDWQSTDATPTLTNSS

For `CC(C)NCC(O)c1ccc(O)c(O)c1` (stereo not shown) [Isoproterenol], in the assay on GSK-3, the “decrease of GSK-3 activity” value is reported as “approximately 50%”. In the case of `COc1ccc(C[C@H]2NC[C@H](O)[C@H]2OC(C)=O)cc1` [anisomycin], in the assay on GSK-3β−/− cells, the “susceptibility of GSK-3β-deficient cells to apoptotic stimuli” value (“susceptibility of GSK-3β-deficient cells” below) is recorded as “normal susceptibility”. On to `COc1cccc2c1C(=O)c1c(O)c3c(c(O)c1C2=O)C[C@@](O)(C(C)=O)C[C@@H]3O[C@H]1C[C@H](N)[C@H](O)[C@H](C)O1` [daunorubicin], for which, in the assay on GSK-3β−/− cells, the “susceptibility of GSK-3β-deficient cells” value is “normal susceptibility”. `OC[C@@H](O)[C@@H](O)[C@H](O)[C@@H](O)CO` [sorbitol]: the “susceptibility of GSK-3β-deficient cells” value with GSK-3β−/− cells was “normal susceptibility”. Turning to `CCCC(CCC)C(=O)O` [VPA, Valproic acid], the “inhibition of GSK-3α” value at GSK-3α is “inhibits”. The “inhibition of GSK-3β” value at GSK-3β is given as “inhibits”. insulin: the “decrease of GSK-3 activity” value with GSK-3 is reported as “approximately 50%”.
